Reference: patent US11845741B2, “Pilocarpine ionic liquids for treatment of glaucoma” (VIRGINIA COMMONWEALTH UNIVERSITY INTELLECTUAL PROPERTY …, priority 2020, dated 2023)
“Also recorded” adds a separate entry of the source. Structures can show the parent of a compound that is named as a salt. Blank lines part the entries; values can stand above or below the compound they belong to.

Experiments:
[1] = literature value; cited from earlier work
[2] = Ex vivo corneal permeation, Franz diffusion cell; assay type: in vitro ADME; conditions: rabbit cornea; for amount permeated through the cornea within 4 h: 200 μL of 27 mM in donor chamber
Description: Ex vivo corneal permeation studies. Corneas were extracted from fresh rabbit eyes and mounted immediately in a Franz diffusion cell system with the epithelial surface facing the donor chamber. In each test, Pilo, PiloHCl, or [Pilo-OEG]Cl (200 μL, 27 mM) was loaded to the donor chamber. The receiver chamber was filled with 5 mL of PBS. At pre-determined time points up to 4 h, an aliquot of 1 mL from the receiver chamber was collected via syringe and analyzed with UV-Vis spectrophotometer (U-3010, Hitachi). Fresh PBS (1 mL) was added to the receiver chamber following each sampling. All the experiments were conducted in triplicate. The permeability coefficient, P, was then determined based on the following equation: [formula] where dQ/dt is the steady-state slope of a cumulative flux curve (in this study, the data in 1 h is selected for dQ/dt calculation), C is drug concentration in the donor chamber, and A is the effective cross-sectional area (0.629 cm^2) available for diffusion.^22

[3] = Stability test: pH of aqueous solutions over 24 h; assay type: physicochemical; conditions: for pH of freshly prepared solution: 0 h
Description: (§1) Stability test. Fresh water solutions of Pilo, PiloHCl, and [Pilo-OEG]Cl (5 mM) were prepared and their pH at 0, 0.75, 4, 8, and 24 h was measured with a pH meter ([…]). The samples at 0 and 24 h were further analyzed with LC-MS/MS using a Surveyor Plus HPLC System and triple stage quadrupole (TSQ) Quantum Ultra Mass Spectrometer (Thermo Fisher Scientific, USA) equipped with an auto-sampler and electrospray ionization (ESI) source. Separation was carried out on an Hypersil Gold column (150 mm×2.1 mm, […], Thermo) maintained at 25° C. The mobile phase consisted of 0.1% (v/v) formic acid water phase (A) and methanol phase (B). The gradient elution program was as follows: 95% of A at 0-5 min, and back to 95% of A at 23.1 min, re-conditioning of the column for 8 min. The flow rate was 0.2 mL/min A capillary temperature of 350° C., spray voltage of 4500 V, sheath gas of 30 arb, and auxiliary gas of 10 arb were maintained as the optimal instrument conditions. Unit resolution was used for Q1 (FWHM 0.7). Nitrogen was used as both sheath gas and auxiliary gas.

[4] = Stability test: LC-MS/MS analysis of aqueous solutions at 0 and 24 h; assay type: physicochemical; conditions: water solution, 5 mM
Description: as §1

[5] = test system: HCE-2 human corneal epithelial cells; assay: Cytotoxicity assessment, WST-1 assay; assay type: cell-based; conditions: HCE-2 cells, 24 h, 1 mM to 50 mM
Description: (§2) Cytotoxicity assessment. HCE-2 human corneal epithelial cells were seeded in a 96-well plate at a density of 1×10^4 cell/well. After attachment, the cells were incubated with various concentrations of Pilo, PiloHCl and [Pilo-OEG]Cl for 24 h and cell viability was determined by using WST-1 assay. The medium for HCE-2 (ATCC CRL-11135, epithelial Adenovirus 12-SV40 hybrid transformed) was Keratinocyte-serum free medium supplemented with 0.05 mg/mL of bovine pituitary extract (BPE), 5 ng/mL of epidermal growth factor (EGF), 500 ng/mL of hydrocortisone and 0.005 mg/mL of insulin. The cytotoxicity of Pilo and [Pilo-OEG]Cl to NIH3T3 fibroblast cells was also tested.

[6] = Cytotoxicity assessment, WST-1 assay; assay type: cell-based, human; conditions: human, HCE-2 human corneal epithelial cells; HCE-2 cells, 24 h incubation, WST-1
Description: as §2

[7] = test system: intraocular pressure (IOP); assay: In vivo IOP-lowering efficacy assessment; design: species or system normotensive adult Brown Norway female rats; conditions: for IOP reduction after second dose: second topical dose applied 4 hours after the first; for average IOP reduction after first dose: topical 2×5 μL, 82 mM pilocarpine equivalent, 45 min post-administration, n=4; for time of highest IOP reduction post-administration: topical instillation
Description: In vivo efficacy assessment. Normotensive adult Brown Norway female rats (Charles River Laboratories), 8 months old, were used in this work. The rats were given free access to food and water, 12 hours light and dark cycle in a temperature-controlled room (18-24° C.). The procedures conducted were approval by Virginia Commonwealth University IACUC. Rats were randomly grouped to two groups of four (n=4). The right eye of each rat was instilled with PiloHCl or [Pilo-OEG]Cl PBS solution (2×5 μL, 82 mM pilocarpine equivalent), one dose at 8:00 am and the second dose at 12:00 pm. The IOPs of both eyes were measured at 8:00 am (before dosing), 8:45 am, 12:00 pm (before the second dosing), 12:45 pm, and 16:00 pm using Icare TONOLAB tonometer TV02.

amount permeated through the cornea within 4 h ([2]; 4 h): 27.8±14.7%
permeability coefficient ([2]; dQ/dt from data in 1 h): 6.6 ×10⁻⁶ cm/s
pH of freshly prepared solution ([3]; water solution, 5 mM): 9.2
pH of solution at 8 h ([3]; water solution, 5 mM, 8 h): 8.7
pH of solution at 24 h ([3]; water solution, 5 mM, 24 h): 8.2
pKa ([3]; water solution, calculated/estimated from pH at 0 h, 5 mM in water, read-out: dissociation constant (pKa)): 7.28
Compound: CC[C@@H]1C(=O)OC[C@@H]1Cc1cncn1C [Pilo, Pilocarpine]
pKa reported in the Merck Index [1]: 7.15
degradation products formed in solution (LC-MS) [4]: isopilocarpine formed (eluted at 2.02 min, m/z=209.06) and further hydrolyzed into acids
cytotoxicity / cytocompatibility [5]: cytocompatible

amount permeated through the cornea within 4 h ([2]; 4 h, hydrochloride): 8.1±1.8%
permeability coefficient ([2]; dQ/dt from data in 1 h, hydrochloride): 1.5 ×10⁻⁶ cm/s
dissociation constant (pKa) ([3]; calculated/estimated from pH at 0 h, 5 mM in water, hydrochloride): 8.34
pH of freshly prepared solution ([3]; water solution, 5 mM, hydrochloride): 5.3
pH stability of aqueous solution within 24 h ([3]; water solution, 5 mM, 24 h): remain relatively stable
degradation products formed in solution (LC-MS) ([4]; hydrochloride): Isopilocarpine also formed
Compound: CC[C@@H]1C(=O)OC[C@@H]1Cc1cncn1C [PiloHCl, pilocarpine hydrochloride]
cytotoxicity / cytocompatibility ([5]; hydrochloride): strong dose-dependent cytotoxicity
IC50 at 24 h [6]: 25 mM
IOP reduction after second dose [7]: ~1 mmHg
average IOP reduction after first dose [7]: 1.25 mmHg
time of highest IOP reduction post-administration [7]: 45 min

permeability coefficient, fold higher than Pilo [2]: 1 fold
permeability coefficient, fold higher than PiloHCl [2]: 8 fold
amount permeated through the cornea within 4 h ([2]; 4 h): 51.6±8.1%
amount permeated, fold higher than PiloHCl ([2]; 4 h): 5 fold
Papp at 1 h, 27 mM ([2]; rabbit, dQ/dt from data in 1 h, read-out: permeability coefficient): 13 ×10⁻⁶ cm/s
pH of freshly prepared solution ([3]; water solution, 5 mM): 7.3
pH stability of aqueous solution within 24 h ([3]; water solution, 5 mM, 24 h): remain relatively stable
Compound: CC[C@@H]1C(=O)OC[C@@H]1Cc1c[n+](CCOCCOCCO)cn1C.[Cl-] [[Pilo-OEG]Cl]
degradation products formed in solution (LC-MS) [4]: neither isopilocarpine or pilocarpine and isopilocarpine acids formed
cytotoxicity / cytocompatibility [5]: did not show apparent toxicity; also recorded: cytocompatible
IOP reduction, fold versus PiloHCl ([7]; first dose, statistical significance not established): 2 fold
IOP reduction after second dose [7]: 2.625 mmHg
average IOP reduction after first dose [7]: 2.75 mmHg
time of highest IOP reduction post-administration [7]: 45 min
